Measurements published in patent publication US9834521B2, “Choline kinase inhibitors” (ARIAD Pharmaceuticals, Inc., priority 2013, dated 2017).
Where two headings read alike, the source gives them in different places.

How the values were obtained:
[1] = biological target: T1, truncated form of human Choline kinase α1 that includes residues 75-457 (Homo sapiens, UniProt P35790); assay: Kinase Assay, coupled (ATP regeneration) LDH/PK assay, NADH absorbance; type: biochemical
T1 construct: made in house
T1 sequence (P35790 75-457): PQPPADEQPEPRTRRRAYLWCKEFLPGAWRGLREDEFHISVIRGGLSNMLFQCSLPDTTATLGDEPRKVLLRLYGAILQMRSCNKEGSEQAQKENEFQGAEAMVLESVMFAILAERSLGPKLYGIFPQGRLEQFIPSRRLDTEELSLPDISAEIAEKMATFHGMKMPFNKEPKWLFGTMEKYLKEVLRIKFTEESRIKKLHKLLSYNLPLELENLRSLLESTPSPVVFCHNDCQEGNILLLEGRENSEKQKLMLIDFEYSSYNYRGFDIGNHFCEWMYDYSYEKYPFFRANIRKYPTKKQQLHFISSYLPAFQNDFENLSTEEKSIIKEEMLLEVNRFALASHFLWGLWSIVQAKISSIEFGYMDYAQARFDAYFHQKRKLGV
Experimental: Absorbance of NADH (340 nm) was measured over 30 min using a SpectraMax M5 (Molecular Devices). Initial reaction velocity (ΔA340/Δt) was calculated and plotted as a function of inhibitor concentration in a 2-fold dilution series. IC50 values were obtained by fitting the relative velocities to a dose-response model.

ChoKα protein = biological target: T2, ChoKα protein (Homo sapiens, UniProt P35790); assay: Binding affinity by surface plasmon resonance (SensiQ Pioneer, FastStep)
T2 construct: made in house
T2 sequence (P35790 75-457): as above
Experimental: KD may be measured using surface plasmon resonance (BIAcore®) technology, see, e.g., Panayotou et al, Mol. Cell. […] ChoKα protein was immobilized by standard amine coupling methods on a COOH5 sensor chip installed in a SensiQ Pioneer system. Sensograms were measured using the FastStep™ screen method with an upper concentration of 500 nM. Kinetics and affinity were obtained from fits using a 1:1 binding model.

cancer cell lines = assay: Cellular Growth Inhibition Assay (CyQuant Cell Proliferation Assay Kit); type: cell-based
Experimental: Cellular Growth Inhibition AssayVehicle or compound treated cells were assessed for cell growth after 72 hours of treatment using the CyQuant® Cell Proliferation Assay Kit (Life Technologies, Grand Island, N.Y.). […] Data are shown as mean (±SD) from ≧2 separate experiments.

[2] = system: phosphocholine levels in MDA-MB-468 cells; assay: Phosphocholine Assay (1H-NMR) in MDA-MB-468 cells; type: cell-based; details: Homo sapiens, 24 hours of treatment, read-out: IC50 of pCh
Experimental: (§1) 5×10^6 cells of each line were grown in the presence of increasing concentration of the test compound or vehicle (DMSO) for 24 hours, then counted and viability checked by Trypan Blue Exclusion protocol. 5×10^6 viable cells were washed twice in ice cold D-PBS, then solubilized by vortexing for 30 seconds in 6 mL ice cold 100% methanol. 6 mL of chloroform and 6 mL of water were added and the mixture vortexed again. After centrifugation for 10 minutes @ 5,220 rpms, 10 mL of the aqueous phase is removed and lyophilized. The samples were analyzed by ^1H-NMR to determine phosphocholine levels.
Similarly, dose dependent inhibition of phosphocholine levels in MDA-MB-468 cells by the compound provided in Example 45 was determined by ^1H-NMR analysis after 24 hours of treatment with increasing concentrations consisting of 0.1 μM, 1.0 μM, 10 μM, 20 μM, and 80 μM. By this method, the IC50 of pCh was determined to be 3 μM of the compound provided in Example 45.

[3] = system: phosphocholine levels in MDA-MB-415 cells; assay: Phosphocholine Assay (1H-NMR) in MDA-MB-415 cells; type: cell-based; details: Homo sapiens, 24 hours of treatment, read-out: IC50 of pCh
Experimental: as §1
Dose dependent inhibition of phosphocholine levels in MDA-MB-415 cells by the compound provided in Example 55 was determined by ^1H-NMR analysis after 24 hours of treatment with increasing concentrations consisting of 0.25 μM, 0.50 μM, 1.0 μM, 2.0 μM, 4.0 μM, 8.0 μM and 16 μM.

[4] = Examples not designated with an asterisk, footnote prints version 1 of the Kinase Assay, read-out: IC50
[5] = SPR, 1:1 binding model, upper concentration 500 nM, read-out: Kd
[6] = 72 hours of treatment, cell line not named, read-out: GI50

SMILES | IC50 [1] | Kd (ChoKα protein) | GI50 (cancer cell lines; 72 h) | IC50 [1, 4] | Kd (ChoKα protein; [5]) | GI50 (cancer cell lines; [6]) | IC50 [2] | IC50 [3]
CN1CCCN(Cc2ccc(-c3ccc(C4(NS(C)(=O)=O)CC4)cc3)c(C#N)c2)CC1 [Example 82, N-(1-(2′-cyano-4′-((4-methyl-1,4-diazepan-1-yl)methyl)-[1,1′-biphenyl]-4-yl)cyclopropyl)methanesulfonamide] |  |  |  | < 100 nM | < 50 nM | < 20000 nM |  | 
CC(=O)NNC(=O)CCc1ccc(-c2ccc(CN3CCCN(C)CC3)cc2C#N)cc1 [Example 83, N′-acetyl-3-(2′-cyano-4′-((4-methyl-1,4-diazepan-1-yl)methyl)-[1,1′-biphenyl]-4-yl)propanehydrazide] |  |  |  | < 100 nM | < 50 nM | > 20000 nM |  | 
CNS(=O)(=O)c1ccc(-c2ccc(CN3CCCN(C)CC3)cc2C#N)cc1 [Example 86, 2′-cyano-N-methyl-4′-((4-methyl-1,4-diazepan-1-yl)methyl)-[1,1′-biphenyl]-4-sulfonamide] |  |  |  | < 100 nM | < 50 nM | < 5000 nM |  | 
CN1CCCN(Cc2ccc(-c3ccc(S(N)(=O)=O)cc3)c(C#N)c2)CC1 [Example 87, 2′-cyano-4′-((4-methyl-1,4-diazepan-1-yl)methyl)-[1,1′-biphenyl]-4-sulfonamide] |  |  |  | < 100 nM | < 100 nM | > 20000 nM |  | 
CN1CCCN(Cc2ccc(-c3ccc4cn[nH]c4c3)c(C#N)c2)CC1 [Example 89, 2-(1H-indazol-6-yl)-5-((4-methyl-1,4-diazepan-1-yl)methyl)benzonitrile] |  |  |  | < 100 nM | < 50 nM | > 20000 nM |  | 
CN1CCCN(Cc2ccc(-c3ccc4[nH]ncc4c3)c(C#N)c2)CC1 [Example 92, 2-(1H-indazol-5-yl)-5-((4-methyl-1,4-diazepan-1-yl)methyl)benzonitrile] |  |  |  | < 100 nM | < 50 nM | > 20000 nM |  | 
CN1CCCN(Cc2ccc(-c3ccc(NS(C)(=O)=O)cc3)c(C#N)c2)CC1 [Example 104, N-(2′-cyano-4′-((4-methyl-1,4-diazepan-1-yl)methyl)-[1,1′-biphenyl]-4-yl)methanesulfonamide] |  |  |  | < 100 nM | < 50 nM | > 20000 nM |  | 

Next, values leading:

IC50 [1] | Kd (ChoKα protein) | GI50 (cancer cell lines; 72 h) | IC50 [1, 4] | Kd (ChoKα protein; [5]) | GI50 (cancer cell lines; [6]) | IC50 [2] | IC50 [3] | SMILES
< 100 nM | < 100 nM | < 5000 nM |  |  |  |  |  | CN1CCCN(Cc2ccc(-c3ccc(CN4CCCN(C)CC4)c(F)c3F)cc2)CC1 [Example 41, 4,4′-((2,3-difluoro-[1,1′-biphenyl]-4,4′-diyl)bis(methylene))bis(1-methyl-1,4-diazepane)]
 |  |  | < 200 nM | < 200 nM | < 5000 nM |  |  | CN1CCCN(Cc2ccc(-c3ccc(CN4CCCN(C)CC4)c(F)c3)cc2)CC1 [Example 42, 4,4′-((3-fluoro-[1,1′-biphenyl]-4,4′-diyl)bis(methylene))bis(1-methyl-1,4-diazepane)]
< 200 nM | < 200 nM | < 5000 nM |  |  |  |  |  | CN1CCCN(Cc2ccc(-c3ccc(CN4CCCN(C)CC4)c(Cl)c3)cc2)CC1 [Example 43, 4,4′-((3-chloro-[1,1′-biphenyl]-4,4′-diyl)bis(methylene))bis(1-methyl-1,4-diazepane)]
< 200 nM | < 200 nM | < 5000 nM |  |  |  |  |  | CN1CCCN(Cc2ccc(-c3ccc(CN4CCCN(C)CC4)cc3F)cc2)CC1 [Example 44, 4,4′-((2-fluoro-[1,1′-biphenyl]-4,4′-diyl)bis(methylene))bis(1-methyl-1,4-diazepane)]
< 200 nM | < 60000 nM | < 5000 nM |  |  |  | 3000 nM |  | CN1CCCN(Cc2ccc(-c3ccc(CN4CCCN(C)CC4)cc3)cc2)CC1 [Example 45, 4,4′-bis((4-methyl-1,4-diazepan-1-yl)methyl)-1,1′-biphenyl]
 |  |  | < 200 nM | < 60000 nM | < 5000 nM |  |  | Cc1cc(C(=O)N2CCCN(C)CC2)ccc1-c1ccc(CN2CCCN(C)CC2)cc1 [Example 50, (4-methyl-1,4-diazepan-1-yl)(2-methyl-4′-((4-methyl-1,4-diazepan-1-yl)methyl)-[1,1′-biphenyl]-4-yl)methanone]
< 200 nM | < 100 nM | < 5000 nM |  |  |  |  | 750 nM | CN1CCCN(Cc2ccc(-c3ccc(CN4CCCN(C)CC4)cc3C#N)c(F)c2)CC1 [Example 55, 2′-fluoro-4,4′-bis((4-methyl-1,4-diazepan-1-yl)methyl)-[1,1′-biphenyl]-2-carbonitrile]
 |  |  | < 100 nM | < 100 nM | < 20000 nM |  |  | CN1CCCN(Cc2ccc(-c3ccc(CN4CCCN(C)CC4)cc3C#N)c(C#N)c2)CC1 [Example 56, 4,4′-bis((4-methyl-1,4-diazepan-1-yl)methyl)-[1,1′-biphenyl]-2,2′-dicarbonitrile]
 |  |  | < 100 nM | < 50 nM | < 20000 nM |  |  | COc1ccc(-c2cc(C(=O)N3CCCN(C)CC3)ccc2-c2ccc(CN3CCCN(C)CC3)cc2C#N)cc1 [Example 66, 4″-methoxy-4-((4-methyl-1,4-diazepan-1-yl)methyl)-4′-(4-methyl-1,4-diazepane-1-carbonyl)-[1,1′:2′,1″-terphenyl]-2-carbonitrile]
